Test results published in publication PMC5338256, “D-form KLKLLLLLKLK-NH2 peptide exerts higher antimicrobial properties than its L-form counterpart via an association with bacterial cell wall components” (Scientific Reports, 2017).
In brackets after ≈: the same amount, converted by molar mass. Non-standard residues stand in square brackets, D forms with d. Residues, ends and D or L forms follow the SMILES beside them.

Tests used:
[1] = tested on: E. coli; format: cell-based, Escherichia coli W3110 (NBRC12713); conditions: pH 6
Procedure: (§1) S. aureus (NBRC100910), E. coli W3110 (NBRC12713), E. hirae (NBRC3181), C. albicans (NBRC1385), and S. Typhimurium 14028s (ATCC14028)[2] were used in this study. S. aureus, E. coli, and S. Typhimurium were grown at 37 °C with aeration in Muller-Hinton II medium (BD Biosciences). E. hirae was grown at 37 °C in LB medium (Nacalai Tesque, Inc.) containing 0.5% glucose (w/v). C. albicans was grown at room temperature with aeration in YM medium (BD Biosciences). All experiments were conducted using bacterial cells and C. albicans in the logarithmic-phase of growth.
(§2) Bacterial suspensions in Muller-Hinton II medium were adjusted to an optical density of 550 nm (OD550) = 0.0011. C. albicans suspensions in YM medium were adjusted to OD650 = 0.033. Peptides were serially diluted in 10 mM phosphate buffer (pH 6.0) containing 130 mM sodium chloride, 0.2% bovine serum albumin, and 2.56% dimethyl sulfoxide. The peptide solution (100 μl) was mixed with 100 μl of bacteria or C. albicans suspensions. Bacterial cultures were incubated for one day at 37 °C. C. albicans cultures were incubated for two days at room temperature. Cell growth was monitored optically and the MIC was determined.

[2] = tested on: C. albicans; format: cell-based, Candida albicans (NBRC1385)
Procedure: as §1, §2

[3] = tested on: E. hirae; test: Assay for antimicrobial activity (10 min exposure, CFU); format: cell-based, Enterococcus hirae (NBRC3181); conditions: 10 min at 37 °C, triplicate plates
Procedure: as §1
(§3) Bacteria and C. albicans were suspended in growth medium. Peptides suspended in dimethyl sulfoxide were serially diluted in 10 mM phosphate buffer (pH 6.0) containing 130 mM sodium chloride, 0.2% bovine serum albumin as described previously. In order to examine the effects of bovine serum albumin on the assay, 10 mM phosphate buffer (pH 6.0) containing 130 mM sodium chloride, was used for the dilution of peptides. […] The inhibitory effects of the bacterial components were analyzed by incubating 450 μl of S. aureus suspension with 500 μl of peptide solution plus 50 μl of inhibitor samples at 37 °C for 10 min. […] After cultivation of the plates, colony forming units (CFU) in the peptide/bacteria suspension were calculated based on the average of triplicate plates.

[4] = tested on: E. coli; test: as above; format: cell-based, Escherichia coli W3110 (NBRC12713); conditions: 10 min at 37 °C, triplicate plates
Procedure: as §1, §3

[5] = tested on: S. aureus; test: Assay for membrane permeability (ethidium influx); format: cell-based, Staphylococcus aureus; conditions: 20 μg/ml peptide, fluorescence for 180 sec, 10 mM phosphate buffer pH 6.0, 130 mM NaCl, 0.2% BSA
Procedure: To examine membrane permeability, ethidium influx rates were examined as previously described. S. aureus suspension cultures were adjusted to an OD600 of 0.4 in 10 mM phosphate buffer (pH 6.0) containing 130 mM sodium chloride and 0.2% bovine serum albumin. Then, peptide in dimethyl sulfoxide (8 μl) or dimethyl sulfoxide alone (8 μl) was added to 2 ml of S. aureus suspensions. At 30 sec after the addition of peptide, ethidium bromide was added to a final concentration of 5 μg/ml, and fluorescence of the ethidium-nucleic acid complex was monitored using a RF-5300PC spectrofluorometer (Shimadzu). Excitation and emission wavelengths were 545 nm with 5 nm slits and 600 nm with 10 nm slits, respectively.

[6] = Calcein leakage from liposomes; format: biochemical; conditions: 10 min at room temperature, pH 6.0, triplicate assays
Procedure: Liposomes were prepared as previously described with some modifications. S. aureus-mimetic liposomes[17][26] and mammalian-mimetic liposomes[27] were prepared by combining phospholipid mixtures (cardiolipin: L-α-phosphatidyl-DL-glycerol = 1:3 (mol/mol)) and 2-dioleoyl-sn-glycero-3-phosphocholine:1,2-dioleoyl-sn-glycero-3-phosphoethanolamine:Cholesterol = 4:2:3 (mol/mol/mol)), respectively. A 50 mM calcein solution was prepared by mixing 100 mg calcein with 3.1 ml of solution A (0.3 ml of 1 M Tris-HCl (pH 7.4), 0.9 ml of 5 M sodium hydroxide, and 13.8 ml of water). The liposomes were prepared by adding 1 ml of calcein solution to the dried lipid mixtures, followed by vortexing for 10 min at room temperature. The liposome solution (1 ml) was centrifuged at 3000 × g for 10 min, and the precipitate was resuspended in 1 ml of 20 mM Tris-HCl (pH 7.4) containing 150 mM sodium chloride. The centrifugation step was repeated two more times. Finally, the precipitate was suspended in 100 μl of 20 mM Tris-HCl (pH 7.4) containing 150 mM sodium chloride.
Liposome suspensions were prepared by diluting of 1 μl of liposomes into 40 ml of 10 mM phosphate buffer (pH6.0) containing 130 mM sodium chloride. Peptides were serially diluted in 10 mM phosphate buffer (pH 6.0) containing 130 mM sodium chloride and 1% dimethyl sulfoxide. […]

[7] = tested on: S. aureus; test: Inhibition of antimicrobial activity by bacterial cell wall components; format: cell-based, Staphylococcus aureus; conditions: D-form 1.9 μg/ml, L-form 7.5 μg/ml, 10 min
Procedure: Bacteria and C. albicans were suspended in growth medium. Peptides suspended in dimethyl sulfoxide were serially diluted in 10 mM phosphate buffer (pH 6.0) containing 130 mM sodium chloride, 0.2% bovine serum albumin as described previously. In order to examine the effects of bovine serum albumin on the assay, 10 mM phosphate buffer (pH 6.0) containing 130 mM sodium chloride, was used for the dilution of peptides. Peptide solution (500 μl) was added to 500 μl of bacteria suspensions and then the mixture was incubated at 37 °C for 10 min. In order to examine the effects of culture medium components on the assay, bacteria suspension was prepared with 10 mM phosphate buffer (pH 6.0) containing 130 mM sodium chloride. Alternatively, 500 μl of peptide solution was added to 500 μl of C. albicans suspensions and the mixture was incubated at room temperature for 10 min. The inhibitory effects of the bacterial components were analyzed by incubating 450 μl of S. aureus suspension with 500 μl of peptide solution plus 50 μl of inhibitor samples at 37 °C for 10 min. Then, the peptide/bacteria suspensions were diluted and plated onto LB agar, LB agar containing 0.5% glucose, or YM agar. After cultivation of the plates, colony forming units (CFU) in the peptide/bacteria suspension were calculated based on the average of triplicate plates.
Peptidoglycan (120 μg) prepared from S. aureus was added to 1 mg/ml of lysozyme in phosphate buffered saline (150 μl)[33]. Peptidoglycan without lysozyme and lysozyme without peptidoglycan were also prepared as controls. Samples were incubated overnight at 37 °C, and then incubated at 100 °C for 15 min to inactivate lysozyme. For heat-inactivation of peptidoglycan, 600 μg of peptidoglycan suspended in water (300 μl) was incubated at 100 °C for 15 min. The samples were sonicated for 10 sec at setting 1 using a Branson sonifier model S-150D. These samples were used as inhibitor samples for antimicrobial activity assays.

[8] = tested on: Staphylococcus aureus; conditions: cited from earlier work
Text: We determined minimum inhibitory concentrations (MICs) of other ant ...

[9] = cited from earlier work

With `CC(C)C[C@@H](NC(=O)[C@H](N)CCCCN)C(=O)N[C@H](CCCCN)C(=O)N[C@H](CC(C)C)C(=O)N[C@H](CC(C)C)C(=O)N[C@H](CC(C)C)C(=O)N[C@H](CC(C)C)C(=O)N[C@H](CC(C)C)C(=O)N[C@H](CCCCN)C(=O)N[C@H](CC(C)C)C(=O)N[C@H](CCCCN)C(N)=O` [D-form KLKLLLLLKLK-NH2] (H-[dK][dL][dK][dL][dL][dL][dL][dL][dK][dL][dK]-NH2; N-terminus assumed) as the molecule, how does the MIC [1] read?
The MIC was 8 µg/mL (≈ 6.05 µM).

What about the MIC [2] of the same molecule?
Its MIC is 32 µg/mL (≈ 24.2 µM).

And the “antimicrobial activity (CFU), D-form compared with L-form” value [3]?
The value was “higher antimicrobial activity”.

What about the “antimicrobial activity (CFU), D-form compared with L-form” value [4] of the same molecule?
Its value is “higher antimicrobial activity”.

What about the “ethidium bromide influx rate” value [5] of the same molecule?
Its value is “higher”.

What about the “calcein release from liposomes” value ([6]; S. aureus-mimetic liposomes (cardiolipin:phosphatidylglycerol 1:3)) of the same molecule?
The value was “released calcein”.

And the “calcein release from liposomes” value ([6]; mammalian-mimetic liposomes (phosphatidylcholine:phosphatidylethanolamine:cholesterol 4:2:3))?
The value was “neither D-form nor L-form KLKLLLLLKLK-NH2 was able to release calcein”.

And the “inhibition of the antimicrobial effect by S. aureus peptidoglycan” value ([7]; 40 μg/ml S. aureus peptidoglycan)?
The value was “almost inhibited”.

And the “inhibition of the antimicrobial activity by lipopolysaccharide from E. coli” value [7]?
The value was “preferentially inhibited”.

And the “inhibition of the antimicrobial activity by peptidoglycan from E. coli” value [7]?
The value was “weak inhibitory effect”.

What about the “inhibition of the antimicrobial activity by synthetic E. coli lipid A” value [7] of the same molecule?
The value was “preferentially inhibited”.

What about the “inhibition of the antimicrobial effect by lipoteichoic acid from S. aureus” value [7] of the same molecule?
The value was “inhibited the antimicrobial effect of both D-form and L-form peptides similarly”.

What about the “antimicrobial activity, D-form compared with L-form” value [8] of the same molecule?
The value was “higher antimicrobial activity”.

What about the “persistence in bacterial culture medium, D-form compared with L-form” value [9] of the same molecule?
Its value is “persist longer”.
